Measured values published in patent US7109296B2, “Human 5-HT3-C protein” (Ortho-McNeil Pharmaceutical, Inc., priority 1999, dated 2006).

Legend:
Assay type in all cases: cell-based
human 5-HT3-C = molecular target: T1, human 5-HT3-C (Homo sapiens, UniProt Q8WXA8); test: Two-electrode voltage clamp, Xenopus oocytes injected with 5-HT3-C cRNA alone; details: for sensitivity of oocytes to neuroactive compound: >100 μM, only 5-HT3-C cRNA (33.5 ng), n=5
T1 construct: Characterization of the Function of Protein Encoded by p5HT3CR in Xenopus oocvtes; expressed in transfected cells; host or cells: Xenopus laevis oocytes injected with in vitro transcribed cRNA (pGEM HE)
T1 sequence (Q8WXA8 28-447): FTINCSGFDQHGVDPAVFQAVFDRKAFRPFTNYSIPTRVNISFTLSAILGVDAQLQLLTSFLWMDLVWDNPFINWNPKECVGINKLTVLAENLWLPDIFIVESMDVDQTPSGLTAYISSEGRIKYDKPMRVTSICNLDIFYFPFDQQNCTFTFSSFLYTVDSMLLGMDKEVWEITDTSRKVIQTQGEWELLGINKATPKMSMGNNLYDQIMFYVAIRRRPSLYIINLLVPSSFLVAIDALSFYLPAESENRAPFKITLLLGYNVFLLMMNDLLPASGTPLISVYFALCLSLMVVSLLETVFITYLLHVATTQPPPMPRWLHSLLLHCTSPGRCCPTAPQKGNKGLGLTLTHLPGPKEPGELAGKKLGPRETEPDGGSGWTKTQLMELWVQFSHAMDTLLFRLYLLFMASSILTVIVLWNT
Method: (§1) Characterization of the Function of Protein Encoded by p5HT3CR in Xenopus oocvtes Xenopus laevis oocytes were prepared and injected using standard methods previously described and known in the art (Fraser et al., 1993). Ovarian lobes from adult female Xenopus laevis (Nasco, Fort Atkinson, Wis.) were teased apart, rinsed several times in nominally Ca-free saline containing (in mM): NaCl 82.5, KCl 2.5, MgCl2 1, HEPES 5, adjusted to pH 7.0 with NaOH(OR-2), and gently shaken in OR-2 containing 0.2% collagenase Type 1 (ICN Biomedicals, Aurora, Ohio) for 2–5 hours. When approximately 50% of the follicular layers were removed, Stage V and VI oocytes were selected and rinsed in media consisting of 75% OR-2 and 25% ND-96. The ND-96 contained (in mM): NaCl 100, KCl 2, MgCl2 1, CaCl2 1.8, HEPES 5, Na pyruvate 2.5, gentamicin (50 ug/ml), adjusted to pH 7.0 with NaOH. […] For in vitro transcription, pGEM HE (Liman et al., 1992) containing human 5-HT3-A (Genbank D49394) or 5-HT3-C cDNA was linearized with NheI and transcribed with T7 RNA polymerase (Stratagene) in the presence of the cap analog m7G(5′)ppp(5′)G. The synthesized cRNA was purified with a Sephadex G-50 spin column. […] Control oocytes were injected with 50 nl of water. Oocytes were incubated for 2–14 days in ND-96 before analysis for expression of the human 5-HT3-C. Incubations and collagenase digestion were carried out at room temperature. Injected oocytes were maintained in 48 well cell culture clusters (Costar, Cambridge, Mass.) at 18° C. Whole cell agonist-induced currents were measured 1–14 days after injection with a conventional two-electrode voltage clamp (GeneClamp500, Axon Instruments, Foster City, Calif.) using standard methods previously described and known in the art (Dascal, 1987). The microelectrodes were filled with 3 M KCl, which had resistances of 1 and 2 MΩ. Cells were continuously perfused with ND96 at 10 ml/min at room temperature unless indicated. Membrane voltage was clamped at −70 mV unless indicated.

[1] = molecular target: T2, long form of human 5-HT3-A together with 5-HT3-C (Homo sapiens, UniProt P46098+Q8WXA8); test: Two-electrode voltage clamp, oocytes co-injected with long form of human 5-HT3-A and 5-HT3-C; details: 100 μM; n=2
T2 construct: Characterization of the Function of Protein Encoded by p5HT3CR in Xenopus oocvtes; expressed in transfected cells; host or cells: Xenopus laevis oocytes co-injected with cRNAs
T2 sequence (P46098 24-510 isoform P46098-2): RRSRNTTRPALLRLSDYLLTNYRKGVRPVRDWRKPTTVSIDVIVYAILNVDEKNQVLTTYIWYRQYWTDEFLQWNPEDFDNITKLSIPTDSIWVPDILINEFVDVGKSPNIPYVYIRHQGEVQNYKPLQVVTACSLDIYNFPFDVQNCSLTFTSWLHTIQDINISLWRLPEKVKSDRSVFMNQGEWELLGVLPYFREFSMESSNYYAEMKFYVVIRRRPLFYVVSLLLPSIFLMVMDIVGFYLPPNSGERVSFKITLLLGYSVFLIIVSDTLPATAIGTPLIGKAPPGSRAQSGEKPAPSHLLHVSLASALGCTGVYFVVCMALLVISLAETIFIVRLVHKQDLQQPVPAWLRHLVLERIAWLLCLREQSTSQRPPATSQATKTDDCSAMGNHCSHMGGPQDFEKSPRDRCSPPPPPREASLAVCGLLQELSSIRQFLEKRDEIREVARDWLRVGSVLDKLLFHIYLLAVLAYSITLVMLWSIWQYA
T2 sequence (Q8WXA8 28-447): T1 sequence (Q8WXA8 28-447)
Method: Characterization of the Function of Protein Encoded by p5HT3CR in Xenopus oocvtes Xenopus laevis oocytes were prepared and injected using standard methods previously described and known in the art (Fraser et al., 1993). Ovarian lobes from adult female Xenopus laevis (Nasco, Fort Atkinson, Wis.) were teased apart, rinsed several times in nominally Ca-free saline containing (in mM): NaCl 82.5, KCl 2.5, MgCl2 1, HEPES 5, adjusted to pH 7.0 with NaOH(OR-2), and gently shaken in OR-2 containing 0.2% collagenase Type 1 (ICN Biomedicals, Aurora, Ohio) for 2–5 hours. When approximately 50% of the follicular layers were removed, Stage V and VI oocytes were selected and rinsed in media consisting of 75% OR-2 and 25% ND-96. The ND-96 contained (in mM): NaCl 100, KCl 2, MgCl2 1, CaCl2 1.8, HEPES 5, Na pyruvate 2.5, gentamicin (50 ug/ml), adjusted to pH 7.0 with NaOH. […] Whole cell agonist-induced currents were measured 1–14 days after injection with a conventional two-electrode voltage clamp (GeneClamp500, Axon Instruments, Foster City, Calif.) using standard methods previously described and known in the art (Dascal, 1987). […]

[2] = molecular target: T3, 5-HT3-C together with nicotinic ACh receptor subunits β1, β2 and β3 (Homo sapiens, UniProt Q8WXA8); test: Two-electrode voltage clamp, oocytes injected with 5-HT3-C together with nicotinic ACh receptor subunits β1, β2 and β3; details: >100 μM; 5-HT3-C with β1, β2 and β3 (0.2–0.25 ng); n=5;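 further: oocytes expressing the subunits for 2–14 days, voltage-clamped at −70 mV under continuous ND96 perfusion at room temperature, with water-injected oocytes serving as controls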
T3 construct: Characterization of the Function of Protein Encoded by p5HT3CR in Xenopus oocvtes; expressed in transfected cells; host or cells: Xenopus laevis oocytes injected with cRNA
T3 sequence (Q8WXA8 28-447): T1 sequence (Q8WXA8 28-447)

[3] = molecular target: T4, 5-HT3-C together with nicotinic ACh receptor a6 subunit (Homo sapiens, UniProt Q15825+Q8WXA8); test: Two-electrode voltage clamp, oocytes injected with 5-HT3-C together with nicotinic ACh receptor α6 subunit; details: eight days after injection, 5-HT3-C 0.67 ng, a6 1 ng/oocyte
T4 construct: Characterization of the Function of Protein Encoded by p5HT3CR in Xenopus oocvtes; expressed in transfected cells; host or cells: Xenopus laevis oocytes injected with cRNA
Method: Characterization of the Function of Protein Encoded by p5HT3CR in Xenopus oocvtes Xenopus laevis oocytes were prepared and injected using standard methods previously described and known in the art (Fraser et al., 1993). Ovarian lobes from adult female Xenopus laevis (Nasco, Fort Atkinson, Wis.) were teased apart, rinsed several times in nominally Ca-free saline containing (in mM): NaCl 82.5, KCl 2.5, MgCl2 1, HEPES 5, adjusted to pH 7.0 with NaOH(OR-2), and gently shaken in OR-2 containing 0.2% collagenase Type 1 (ICN Biomedicals, Aurora, Ohio) for 2–5 hours. When approximately 50% of the follicular layers were removed, Stage V and VI oocytes were selected and rinsed in media consisting of 75% OR-2 and 25% ND-96. The ND-96 contained (in mM): NaCl 100, KCl 2, MgCl2 1, CaCl2 1.8, HEPES 5, Na pyruvate 2.5, gentamicin (50 ug/ml), adjusted to pH 7.0 with NaOH. […] For in vitro transcription, pGEM HE (Liman et al., 1992) containing human 5-HT3-A (Genbank D49394) or 5-HT3-C cDNA was linearized with NheI and transcribed with T7 RNA polymerase (Stratagene) in the presence of the cap analog m7G(5′)ppp(5′)G. The synthesized cRNA was purified with a Sephadex G-50 spin column. Oocytes were injected with 50 nl of the human serotonin 5-HT3-A receptor with or without the 5-HT3-C RNA (0.02 and 0.002–0.2 ng each) or other channel or receptor subunit. Control oocytes were injected with 50 nl of water. Oocytes were incubated for 2–14 days in ND-96 before analysis for expression of the human 5-HT3-C. Incubations and collagenase digestion were carried out at room temperature. Injected oocytes were maintained in 48 well cell culture clusters (Costar, Cambridge, Mass.) at 18° C. Whole cell agonist-induced currents were measured 1–14 days after injection with a conventional two-electrode voltage clamp (GeneClamp500, Axon Instruments, Foster City, Calif.) using standard methods previously described and known in the art (Dascal, 1987). The microelectrodes were filled with 3 M KCl, which had resistances of 1 and 2 MΩ. […]

5-HT3-B and 5-HT3-C = molecular target: T5, 5-HT3-B and 5-HT3-C (Homo sapiens, UniProt O95264+Q8WXA8); test: Two-electrode voltage clamp, oocytes co-injected with 5-HT3-B and 5-HT3-C; details: 5-HT3-B 3.3 ng, 5-HT3-C 3.35 ng/oocyte
T5 construct: Characterization of the Function of Protein Encoded by p5HT3CR in Xenopus oocvtes; expressed in transfected cells; host or cells: Xenopus laevis oocytes co-injected with cRNAs
T5 sequence (O95264 22-441): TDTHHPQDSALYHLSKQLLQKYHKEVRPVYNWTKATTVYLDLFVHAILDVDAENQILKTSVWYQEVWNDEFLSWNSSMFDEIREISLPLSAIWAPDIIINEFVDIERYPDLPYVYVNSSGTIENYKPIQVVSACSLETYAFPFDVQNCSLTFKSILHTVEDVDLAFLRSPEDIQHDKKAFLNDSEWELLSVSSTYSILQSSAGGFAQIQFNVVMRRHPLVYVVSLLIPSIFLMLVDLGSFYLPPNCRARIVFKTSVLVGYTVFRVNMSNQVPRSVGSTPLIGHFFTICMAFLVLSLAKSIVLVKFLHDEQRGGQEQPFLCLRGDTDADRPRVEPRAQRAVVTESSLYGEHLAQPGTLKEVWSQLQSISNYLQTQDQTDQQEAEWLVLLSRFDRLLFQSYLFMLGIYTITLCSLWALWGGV
T5 sequence (Q8WXA8 28-447): T1 sequence (Q8WXA8 28-447)
Method: as §1

[4] = molecular target: T6, α3β4 receptors together with 5-HT3-C (Homo sapiens, UniProt P30926+P32297); test: Two-electrode voltage clamp, oocytes expressing nicotinic ACh α3β4 receptors together with 5-HT3-C
T6 construct: expressed in transfected cells; host or cells: Xenopus laevis oocytes co-injected with cRNAs

[5] = molecular target: T7, nicotinic ACh α3β4 receptors (Homo sapiens, UniProt P30926+P32297); test: Two-electrode voltage clamp, oocytes expressing nicotinic ACh α3β4 receptors
T7 construct: expressed in transfected cells; host or cells: Xenopus laevis oocytes injected with cRNA

[6] = 500 μM, oocytes injected with 33.5 ng 5-HT3-C

T6 sequence (P32297 32-505): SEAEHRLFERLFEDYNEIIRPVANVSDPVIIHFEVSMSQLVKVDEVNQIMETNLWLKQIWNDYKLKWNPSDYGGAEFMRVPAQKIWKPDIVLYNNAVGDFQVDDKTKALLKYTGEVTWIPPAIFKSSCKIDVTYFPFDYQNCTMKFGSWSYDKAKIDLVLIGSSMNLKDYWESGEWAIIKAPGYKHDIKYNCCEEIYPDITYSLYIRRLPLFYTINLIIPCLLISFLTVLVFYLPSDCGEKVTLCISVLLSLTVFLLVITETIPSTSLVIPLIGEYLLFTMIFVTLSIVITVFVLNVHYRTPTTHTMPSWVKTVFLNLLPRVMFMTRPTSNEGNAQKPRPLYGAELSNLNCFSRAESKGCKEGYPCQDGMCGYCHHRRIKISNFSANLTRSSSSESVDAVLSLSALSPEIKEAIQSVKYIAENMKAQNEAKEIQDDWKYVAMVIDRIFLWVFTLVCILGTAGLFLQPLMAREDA
T6 sequence (P30926 22-498): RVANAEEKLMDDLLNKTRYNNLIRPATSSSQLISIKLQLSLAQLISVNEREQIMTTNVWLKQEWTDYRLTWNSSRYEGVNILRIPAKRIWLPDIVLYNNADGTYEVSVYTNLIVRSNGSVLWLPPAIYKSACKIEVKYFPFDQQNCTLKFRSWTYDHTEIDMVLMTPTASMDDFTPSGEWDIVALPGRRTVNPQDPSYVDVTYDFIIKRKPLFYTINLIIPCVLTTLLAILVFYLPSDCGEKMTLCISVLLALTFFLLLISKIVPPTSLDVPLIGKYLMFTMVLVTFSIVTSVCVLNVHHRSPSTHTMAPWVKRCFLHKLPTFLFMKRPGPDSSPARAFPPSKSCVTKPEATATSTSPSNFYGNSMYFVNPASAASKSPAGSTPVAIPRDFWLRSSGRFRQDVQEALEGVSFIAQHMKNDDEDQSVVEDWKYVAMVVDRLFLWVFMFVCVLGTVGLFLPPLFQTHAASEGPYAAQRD
T4 sequence (Q15825 26-494, one chain of several): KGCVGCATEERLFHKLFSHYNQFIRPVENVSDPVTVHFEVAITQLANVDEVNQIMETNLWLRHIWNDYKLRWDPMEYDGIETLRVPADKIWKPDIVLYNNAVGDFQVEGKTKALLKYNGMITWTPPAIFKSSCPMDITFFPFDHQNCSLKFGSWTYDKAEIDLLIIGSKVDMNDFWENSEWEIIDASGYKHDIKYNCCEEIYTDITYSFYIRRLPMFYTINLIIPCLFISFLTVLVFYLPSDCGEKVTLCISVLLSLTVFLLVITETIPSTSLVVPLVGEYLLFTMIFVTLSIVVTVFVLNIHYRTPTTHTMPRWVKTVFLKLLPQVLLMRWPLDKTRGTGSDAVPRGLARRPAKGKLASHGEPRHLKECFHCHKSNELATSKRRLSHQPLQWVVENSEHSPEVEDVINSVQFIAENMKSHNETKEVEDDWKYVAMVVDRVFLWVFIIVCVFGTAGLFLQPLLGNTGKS
T7 sequence (P32297 32-505): as the sequence (P32297 32-505) above
T7 sequence (P30926 22-498): as the sequence (P30926 22-498) above

For `NC(N)=NC(N)=Nc1ccccc1` [1-PBG], the “effect of agonist (agonist-induced current)” value (from here on “effect of agonist”) (human 5-HT3-C; 100 μM, oocytes injected with 33.5 ng 5-HT3-C) was “no effect”, the “effect of agonist” value (human 5-HT3-C; [6]) was “no effect” and the “sensitivity of oocytes to agonist” value [1] was “insensitive”.
In the case of `CC(=O)OCC[N+](C)(C)C` [ACh], the “effect of agonist” value (human 5-HT3-C; 10 μM, oocytes injected with 33.3 ng 5-HT3-C cRNA) is reported as “No effect”, the “effect of agonist” value (human 5-HT3-C; [6]) is reported as “No effect” and the “sensitivity of oocytes to neuroactive compound” value (human 5-HT3-C) is reported as “insensitive”. The “sensitivity of oocytes to neuroactive compound” value [2] was “insensitive” and the “responsiveness of oocytes to agonist” value ([3]; 500 μM) was “not responsive”.
In the case of `CNCCc1c[nH]c2ccc(O)cc12` [N-ω-methyl-5-HT], the “responsiveness of oocytes to agonist” value (5-HT3-B and 5-HT3-C; 100 μM) is reported as “unresponsive”.
With `Clc1ccc(C2CC3CCC2N3)cn1` (stereo not shown) [epibatidine] the “responsiveness of oocytes to agonist” value (5-HT3-B and 5-HT3-C; 10 μM) was “unresponsive”, the Peak currents [4] was 6.49+/−0.69 nA and the “effect of 5-HT3-C co-injection on epibatidine-activated currents” value [4] was “no effect”. The “effect of 5-HT3-C on t80, time to peak and degree of desensitization to a second epibatidine stimulus” value [4] was “no effect”, the Peak currents [5] was −6.93+/−1.45 nA and the “responsiveness of oocytes to agonist” value ([3]; 10 μM) was “not responsive”.
In the case of `NCCC(=O)O` [β-alanine], the “sensitivity of oocytes to neuroactive compound” value (human 5-HT3-C) is reported as “insensitive” and the “sensitivity of oocytes to neuroactive compound” value [2] is reported as “insensitive”.
In the case of `NCCc1ccccc1` [β-phenylethylamine], the “sensitivity of oocytes to neuroactive compound” value (human 5-HT3-C) is reported as “insensitive” and the “sensitivity of oocytes to neuroactive compound” value [2] is reported as “insensitive”.
